Experimental data reported in ChEMBL document CHEMBL3046338, “Solid-Supported Parallel Synthesis of Hydroxybenzylamine Libraries Possessing Antileishmial Activity” (Med Chem Res, 2005).

How the values were obtained:
Assay type in all cases: functional, organism-based
Leishmania donovani = experiment: Antileishmanial activity against Leishmania donovani promastigotes after 72 hr by alamar blue assay
Plasmodium falciparum [1] = experiment: Antimalarial activity against chloroquine-sensitive Plasmodium falciparum D6 SierraLeone after 48 hr by parasite LDH assay
Plasmodium falciparum [2] = experiment: Antimalarial activity against chloroquine-resistant Plasmodium falciparum W2 IndoChina after 48 hr by parasite LDH assay

Structure (SMILES)	EC50 (Leishmania donovani) [µM]	EC50 (Plasmodium falciparum [1]) [µM]	EC50 (Plasmodium falciparum [2]) [µM]
COc1ccc(CN(Cc2ccc(Br)cc2)c2cccnc2)cc1O	32.6	–	–
COc1ccc(CN(CCc2ccccc2)c2cccnc2)cc1O	18.5	–	–
COc1ccc(CN(CCCc2ccccc2)c2cccnc2)cc1O	15.8	–	–
COc1ccc(CN(CCc2c[nH]c3ccccc23)Cc2ccccc2)cc1O	9.31	–	–
COc1ccc(CN(CCc2c[nH]c3ccccc23)Cc2ccc(Br)cc2)cc1O	9.88	–	–
COc1ccc(CN(CCc2ccccc2)CCc2c[nH]c3ccccc23)cc1O	16.2	–	–
COc1ccc(CN(CCCc2ccccc2)CCc2c[nH]c3ccccc23)cc1O	9.89	–	–
COc1ccc(N(Cc2ccc(C)cc2)Cc2ccc(OC)c(O)c2)cc1	65.1	–	–
COc1ccc(N(Cc2ccc(C(C)(C)C)cc2)Cc2ccc(OC)c(O)c2)cc1	61.6	–	–
COc1ccc(CN(Cc2ccc(OC)c(O)c2)c2ccc(OC)cc2)cc1	71.2	–	–
COc1ccc(CN(CCCN2CCOCC2)Cc2ccccc2)cc1O	–	12.8	12.8
COc1ccc(CN(CCCN2CCOCC2)Cc2ccc(Br)cc2)cc1O	51.2	10.6	10.6
COc1ccc(CN(CCc2ccccc2)CCc2ccc(Br)cc2)cc1O	59	–	–
COc1ccc(CN(CCCc2ccccc2)CCc2ccc(Br)cc2)cc1O	28.6	–	–
CCOC(=O)CCN(CCc1ccc(Br)cc1)Cc1ccc(OC)c(O)c1	25.2	–	–
CCOC(=O)CN(CCc1ccc(Br)cc1)Cc1ccc(OC)c(O)c1	26.1	–	–
COc1ccc(CN(CCc2ccc(Br)cc2)CC(=O)OC(C)(C)C)cc1O	11.1	–	–
CCOC(=O)CCCN(CCc1ccc(Br)cc1)Cc1ccc(OC)c(O)c1	37.8	–	–
CCCCN(CCc1ccc(Br)cc1)Cc1ccc(OC)c(O)c1	125	–	7.14
COc1ccc(CN(CCc2ccccc2)CCc2ccccc2)cc1O	20.8	–	–
COc1ccc(CN(CCCc2ccccc2)CCc2ccccc2)cc1O	14.1	–	–
COc1ccc(CN(CCc2ccccc2)CC(=O)OC(C)(C)C)cc1O	33.6	–	–

Structure (SMILES)	EC50 (Leishmania donovani) [µM]	EC50 (Plasmodium falciparum [1]) [µM]	EC50 (Plasmodium falciparum [2]) [µM]
CCOC(=O)CCCN(CCc1ccccc1)Cc1ccc(OC)c(O)c1	25.6	–	–
COc1ccc(CN(Cc2ccccc2)c2cccnc2)cc1O	53.1	–	–
COc1ccc(CN(CCc2ccc(Br)cc2)Cc2ccc([N+](=O)[O-])cc2)cc1O	46.7	9.55	–
COc1ccc(CN(CCc2ccccc2)Cc2ccc(F)cc2)cc1O	62.9	–	–
COc1ccc(CN(CCc2ccccc2)Cc2cccc(Cl)c2)cc1O	70.7	–	–
COc1ccc(CN(CCc2ccccc2)Cc2ccc(Cl)cc2)cc1O	68.1	–	–
COc1ccc(CN(CCc2ccccc2)Cc2ccc(Cl)c(Cl)c2)cc1O	50.4	–	–
COc1ccc(CN(CCc2ccccc2)Cc2ccc(Cl)cc2Cl)cc1O	60.1	–	–
COc1ccc(CN(CCc2ccccc2)Cc2c(F)c(F)c(F)c(F)c2F)cc1O	48	–	–
COc1ccc(CN(CCc2ccc(Br)cc2)Cc2ccc(OC)c(O)c2)cc1	32.9	–	–
COc1ccc(CN(CCc2ccccc2)Cc2ccc(C)cc2)cc1O	19.9	–	–
COc1ccc(CN(CCc2ccccc2)Cc2ccc(C(C)(C)C)cc2)cc1O	18.6	–	–
COc1ccc(CN(CCc2ccccc2)Cc2ccc(OC)c(O)c2)cc1	18.8	–	–
COc1ccc(CN(Cc2ccccc2)c2cc(OC)c(OC)c(OC)c2)cc1O	29.3	–	–
COc1ccc(CN(Cc2ccc(Br)cc2)c2cc(OC)c(OC)c(OC)c2)cc1O	45.1	–	–
COc1ccc(N(Cc2ccccc2)Cc2ccc(OC)c(O)c2)cc1	109	–	–
COc1ccc(N(Cc2ccc(Br)cc2)Cc2ccc(OC)c(O)c2)cc1	25.8	11.2	11.2
COc1ccc(N(Cc2ccc(F)cc2)Cc2ccc(OC)c(O)c2)cc1	84.4	–	–
COc1ccc(N(Cc2ccc(Cl)cc2)Cc2ccc(OC)c(O)c2)cc1	59.8	–	–
COc1ccc(CN(CCc2ccc(Br)cc2)Cc2ccc(Cl)cc2Cl)cc1O	48.5	–	–
COc1ccc(CN(Cc2ccccc2)Cc2ccc(Br)cc2)cc1O	31.5	–	–
COc1ccc(CN(CCc2ccccc2)Cc2ccccc2)cc1O	37.4	–	–

Structure (SMILES)	EC50 (Leishmania donovani) [µM]	EC50 (Plasmodium falciparum [1]) [µM]	EC50 (Plasmodium falciparum [2]) [µM]
COc1ccc(CCN(Cc2ccccc2)Cc2ccc(OC)c(O)c2)cc1	50.3	12.6	12.6
COc1ccc(CN(Cc2ccccc2)c2ccc(Br)cc2)cc1O	70.3	–	–
COc1ccc(CN(Cc2ccccc2)c2cccc(Cl)c2)cc1O	39.6	13.5	13.5
COc1ccc(CN(CCc2ccc(Br)cc2)Cc2ccccc2)cc1O	11.8	6.58	11.2
COc1ccc(CN(CCc2ccc(OC)c(OC)c2)Cc2ccccc2)cc1O	54	–	11.7
COc1ccc(CCN(Cc2ccc(Br)cc2)Cc2ccc(OC)c(O)c2)cc1	21.9	–	10.4
COc1ccc(CN(Cc2ccc(Br)cc2)c2ccc(Br)cc2)cc1O	33.5	–	–
COc1ccc(CN(Cc2ccc(Br)cc2)c2cccc(Cl)c2)cc1O	64.7	–	–
COc1ccc(CN(CCc2ccc(OC)c(OC)c2)Cc2ccc(Br)cc2)cc1O	39.1	–	9.79
COc1ccc(CN(CCc2ccc(Br)cc2)Cc2ccc(F)cc2)cc1O	56.3	–	–
COc1ccc(CN(CCc2ccc(Br)cc2)Cc2cccc(Cl)c2)cc1O	45.6	–	–
COc1ccc(CN(CCc2ccc(Br)cc2)Cc2ccc(Cl)cc2)cc1O	54.2	–	–
COc1ccc(CN(CCc2ccc(Br)cc2)Cc2ccc(Br)cc2)cc1O	11.9	6.93	9.42
COc1ccc(CN(CCc2ccc(Br)cc2)Cc2ccc(C)cc2)cc1O	29.5	–	–
COc1ccc(CN(CCc2ccc(Br)cc2)Cc2c(F)c(F)c(F)c(F)c2F)cc1O	50.4	–	–
COc1ccc(CN(CCc2ccc(Br)cc2)Cc2ccc(Cl)c(Cl)c2)cc1O	48.5	–	–
COc1ccc(CN(CCc2ccc(Br)cc2)Cc2ccc(C(C)(C)C)cc2)cc1O	47.8	–	–
C[C@@H]1[C@H](O)[C@@H](C)/C=C/C=C/C=C/C=C/C=C/C=C/C=C/[C@H](O[C@@H]2O[C@H](C)[C@@H](O)[C@H](N)[C@@H]2O)C[C@@H]2O[C@](O)(C[C@@H](O)C[C@@H](O)[C@H](O)CC[C@@H](O)C[C@@H](O)CC(=O)O[C@H]1C)C[C@H](O)[C@H]2C(=O)O [AMPHOTERICIN B]	0.01	–	–
C[C@@H]1CC[C@H]2[C@@H](C)C(=O)O[C@@H]3O[C@@]4(C)CC[C@@H]1[C@]32OO4 [ARTEMISININ]	–	0.02	0.02
CCN(CC)CCCC(C)Nc1ccnc2cc(Cl)ccc12 (centres undefined) [CHLOROQUINE]	–	–	0.31
N=C(N)c1ccc(OCCCCCOc2ccc(C(=N)N)cc2)cc1 [PENTAMIDINE]	1.35	–	–
